Data: patent US20080039377A1, “Composition Comprising a Jnk Inhibitor and Cyclosporin” (Applied Research Systems ARS Holding N.V., priority 2004, published 2008)

System: model of global ischemia in gerbils
Assay: Neuroprotective effect of a JNK inhibitor combined with cyclosporin in a model of global ischemia in gerbils
Assay type: in vivo
Conditions: for neuroprotective effects (hippocampal damage assessed by histology): compared to vehicle and to JNK inhibitor alone
Method: In Vivo Assay: Neuroprotective Effect of a JNK Inhibitor Combined with Cyclosporin in a Model of Global Ischemia in Gerbils
The following assay aims at determining the neuroprotective effect of the test compositions in a model of global ischemia in gerbils, in vivo.
A total of 73 gerbils (60-80 g; obtained from Elevage Janvier, France) were provided. 4 groups, each consisting of 6-36 animals were formed: • Group 1 (n=36): The animals were administered (ip) a dose of 10 ml/kg of vehicle. • Group 2 (n=6): The animals were administered (ip) a dose of 15 mg/kg of cyclosporine. • Group 3 (n=8): The animals were administered (ip) a dose of 60 or 40 mg/kg of a JNK inhibitor according to formula (I) or (II). • Group 4 (n=7-8): The animals were administered (ip) a dose of the test composition containing 60 or 40 mg/kg of a JNK inhibitor according to formula (I) or (II) together with 15 mg/kg cyclosporine.
Surgery. Gerbils weighting 60-80 g were anaesthetized with 4% isoflurane (Baxter, Volketswil, Switzerland) in medical air, administered via facemask. The anaesthesia was then maintained using 3% isoflurane until the end of surgery. Bilateral common carotid arteries were dissected and occluded with bulldog clamps for 5 min.
Histology. Seven days after the onset of occlusion, the animals were killed by decapitation. The brains were frozen at −20° C. in 2-methylbutane and cut in 20 μm-thick sections in a cryocut (Microm HM 5000M, Walldorf, Germany). The sections were stained with cresyl violet acetate and the lesion in the hippocampus were scored within a 5-point scale: • Score 0: No loss of CA1 neurons; • Score 1: Weak damage of CA1 (CA1/Subiculum or CA1/CA3 border); • Score 2: Loss of CA1 neurons (<1/2); • Score 3: Loss of CA1 neurons (>1/2); and • Score 4: Total loss of CA1 neurons and expanding into other areas (CA3, Dentate gyrus, Cortex). The total score was obtained as the sum of scores in the right and left hemispheres.

Row | Structure (SMILES) | neuroprotective effects (hippocampal damage assessed by histology) (JNK inhibitor 40 mg/kg ip with Cyclosporin 15 mg/kg ip) | Histological score Mean ± SEM (Table II, Group 2: JNK inhibitor 0 mg/kg ip, Cyclosporine A 15 mg/kg ip, hippocampal lesion score 7 days after occlusion) | Histological score Mean ± SEM (Table II, Group 3: JNK inhibitor 60 mg/kg ip, Cyclosporine A 0 mg/kg, hippocampal lesion score 7 days after occlusion) | Histological score Mean ± SEM (Table II, Group 4: JNK inhibitor 60 mg/kg ip together with Cyclosporine A 15 mg/kg ip, hippocampal lesion score 7 days after occlusion) | neuroprotective effects (hippocampal damage assessed by histology) (JNK inhibitor 60 mg/kg ip with Cyclosporin 15 mg/kg ip) | Histological score Mean ± SEM (Table I, Group 2: JNK inhibitor 0 mg/kg ip, Cyclosporine A 15 mg/kg ip, hippocampal lesion score (sum of both hemispheres, 0-4 each) 7 days after 5 min bilateral carotid occlusion) | Histological score Mean ± SEM (Table I, Group 3: JNK inhibitor 60 mg/kg ip, Cyclosporine A 0 mg/kg, hippocampal lesion score 7 days after occlusion) | Histological score Mean ± SEM (Table I, Group 4: JNK inhibitor 60 mg/kg ip together with Cyclosporine A 15 mg/kg ip, hippocampal lesion score 7 days after occlusion)
1 | CC#N.CCCCNC1CCN(S(=O)(=O)c2ccc(CNC(=O)c3ccc(Cl)cc3)s2)CC1 [Compound B, 4-chloro-N-[(5-{[4-(butylamino)piperidin-1-yl]sulfonyl}thien-2-yl)methyl]benzamide acetonitrile] | increases the neuroprotective effects | 6.0 ± 0.0 | 5.3 ± 0.5 | 2.1 ± 0.6 | – | – | – | –
2 | N#CC(c1ccnc(NCCc2cccnc2)n1)c1nc2ccccc2s1 (centres unmarked) [Compound A, 1,3-benzothiazol-2-yl(2-{[2-(3-pyridinyl)ethyl]amino}-4-pyrimidinyl)acetonitrile] | – | – | – | – | increases the neuroprotective effects | 6.0 ± 0.0 | 3.6 ± 0.8 | 1.3 ± 0.6
